The assay has as its target T1, PI3k δ (Homo sapiens, UniProt O00329).
T1 construct: Full length p110 subunits of PI3k α, β and δ; polyHis (N); made in house; host or cells: Sf9 insect cells (baculovirus)
As to the kind of experiment: biochemical. The assay is classed as biochemical. The method, then:
Full length p110 subunits of PI3k α, β and δ, N-terminally labeled with polyHis tag, were coexpressed with p85 with Baculo virus expression vectors in sf9 insect cells. P110/p85 heterodimers were purified by sequential Ni-NTA, Q-HP, Superdex-100 chromatography. Purified α, β and δ isozymes were stored at −20° C. in 20 mM Tris, pH 8, 0.2M NaCl, 50% glycerol, 5 mM DTT, 2 mM Na cholate. […] The γ isozyme was purified by sequential Ni-NTA, Superdex-200, Q-HP chromatography. The γ isozyme was stored frozen at −80° C. in NaH2PO4, pH 8, 0.2M NaCl, 1% ethylene glycol, 2 mM β-mercaptoethanol.
Phospatidyl inositol phosphoacceptor, Ptdlns(4,5)P2 P4508, was from Echelon Biosciences. […] Test compounds were dissolved in dimethyl sulfoxide and diluted with three-fold serial dilutions. The compound in DMSO (1 μL) was added per test well, and the inhibition relative to reactions containing no compound, with and without enzyme was determined. After assay incubation at rt, the reaction was stopped and residual ATP determined by addition of an equal volume of a commercial ATP bioluminescence kit (Perkin Elmer EasyLite) according to the manufacturer's instructions, and detected using a AnalystGT luminometer.

pKi: −log10 of the molar value. Like-named read-outs stand apart in the source and are kept apart here.

By pKi is commonly meant the Ki on a negative log10 scale, so that one unit is a factor of ten.

T1 sequence (O00329 whole entry): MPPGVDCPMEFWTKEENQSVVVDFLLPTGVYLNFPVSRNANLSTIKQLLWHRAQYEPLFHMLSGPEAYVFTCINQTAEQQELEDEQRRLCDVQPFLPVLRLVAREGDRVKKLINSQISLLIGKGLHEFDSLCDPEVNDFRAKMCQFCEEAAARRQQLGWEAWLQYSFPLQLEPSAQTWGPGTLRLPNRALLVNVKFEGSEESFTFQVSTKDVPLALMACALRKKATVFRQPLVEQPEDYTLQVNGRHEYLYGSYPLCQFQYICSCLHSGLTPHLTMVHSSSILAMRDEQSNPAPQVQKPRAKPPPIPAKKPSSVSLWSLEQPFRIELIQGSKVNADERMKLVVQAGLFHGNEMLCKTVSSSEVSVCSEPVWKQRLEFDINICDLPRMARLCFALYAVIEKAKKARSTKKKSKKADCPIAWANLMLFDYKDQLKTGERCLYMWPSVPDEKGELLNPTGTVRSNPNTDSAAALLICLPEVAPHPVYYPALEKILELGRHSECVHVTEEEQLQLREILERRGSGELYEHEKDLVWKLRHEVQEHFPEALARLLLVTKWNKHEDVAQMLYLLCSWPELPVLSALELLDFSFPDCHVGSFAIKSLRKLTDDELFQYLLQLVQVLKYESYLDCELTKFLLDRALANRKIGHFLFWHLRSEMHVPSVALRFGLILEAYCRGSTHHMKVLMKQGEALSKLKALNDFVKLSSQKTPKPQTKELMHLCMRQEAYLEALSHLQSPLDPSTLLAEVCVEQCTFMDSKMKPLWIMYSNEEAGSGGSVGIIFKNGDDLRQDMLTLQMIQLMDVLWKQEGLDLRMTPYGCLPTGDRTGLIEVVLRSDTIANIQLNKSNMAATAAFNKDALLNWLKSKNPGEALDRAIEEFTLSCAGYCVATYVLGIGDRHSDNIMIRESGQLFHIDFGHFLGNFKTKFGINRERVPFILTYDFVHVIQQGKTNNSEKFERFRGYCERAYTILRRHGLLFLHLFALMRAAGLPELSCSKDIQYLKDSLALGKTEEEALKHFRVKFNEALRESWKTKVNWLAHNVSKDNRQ
T1 sequence (P27986 whole entry partner): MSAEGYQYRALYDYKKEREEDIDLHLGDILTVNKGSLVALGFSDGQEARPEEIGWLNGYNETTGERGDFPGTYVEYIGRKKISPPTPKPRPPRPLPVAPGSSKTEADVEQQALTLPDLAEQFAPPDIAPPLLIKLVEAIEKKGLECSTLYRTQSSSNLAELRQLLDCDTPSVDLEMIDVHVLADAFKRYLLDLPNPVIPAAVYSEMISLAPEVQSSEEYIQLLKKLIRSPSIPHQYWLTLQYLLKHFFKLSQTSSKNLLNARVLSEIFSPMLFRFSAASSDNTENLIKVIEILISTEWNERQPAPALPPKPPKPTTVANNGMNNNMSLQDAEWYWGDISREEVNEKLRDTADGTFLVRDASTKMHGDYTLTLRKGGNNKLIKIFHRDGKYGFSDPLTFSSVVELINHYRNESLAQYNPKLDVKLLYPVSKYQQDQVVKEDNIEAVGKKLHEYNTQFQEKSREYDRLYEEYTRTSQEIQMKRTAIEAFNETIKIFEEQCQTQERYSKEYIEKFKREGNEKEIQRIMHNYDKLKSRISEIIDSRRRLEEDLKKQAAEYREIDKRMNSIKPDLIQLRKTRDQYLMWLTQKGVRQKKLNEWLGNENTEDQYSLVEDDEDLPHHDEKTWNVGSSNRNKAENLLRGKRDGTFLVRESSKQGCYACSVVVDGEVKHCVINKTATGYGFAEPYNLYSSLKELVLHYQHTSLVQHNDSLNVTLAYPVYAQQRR

The compound `CC(Nc1ncnc(N)c1C#N)c1nc2ncccc2n1-c1ccccn1` (stereo not drawn) gave a pKi of 5.54.
On the same count and under the same terms, the value for `CC(Nc1ncnc(N)c1C#N)c1nc2cccc(S(C)(=O)=O)c2n1C1CC1` (stereo not drawn) was 8.42.
For `CNC(=O)c1cccc2nc([C@H](C)Nc3ncnc4[nH]cnc34)n(C3CC3)c12` [1-cyclopropyl-N-methyl-2-((1S)-1-(9H-purin-6-ylamino)ethyl)-1H-benzimidazole-7-carboxamide], the pKi (read-out: PI3k δ Ki) was 7.84.
Same read-out and setting: in the case of `C[C@@H](Nc1ncnc(N)c1C#N)c1nc2cccc(C#N)c2n1-c1cncc(F)c1` [2-((1R)-1-((6-amino-5-cyano-4-pyrimidinyl)amino)ethyl)-1-(5-fluoro-3-pyridinyl)-1H-benzimidazole-7-carbonitrile] it was 6.49; in that of `CNC(=O)c1cccc2nc([C@@H](C)Nc3ncnc(N)c3C#N)n(-c3cncc(F)c3)c12` [2-((1R)-1-((6-amino-5-cyano-4-pyrimidinyl)amino)ethyl)-1-(5-fluoro-3-pyridinyl)-N-methyl-1H-benzimidazole-7-carboxamide], 5.86.
Still for that read-out and setting: in the case of `CNC(=O)c1cccc2nc([C@H](C)Nc3ncnc(N)c3-c3ccc(S(C)(=O)=O)cc3)n(C3CC3)c12` [2-((1S)-1-((6-amino-5-(4-(methylsulfonyl)phenyl)-4-pyrimidinyl)amino)ethyl)-1-cyclopropyl-N-methyl-1H-benzimidazole-7-carboxamide] it was 7.98.
Same read-out and setting: the value for `CNC(=O)c1cccc2nc([C@H](C)Nc3ncnc(N)c3S(C)(=O)=O)n(C3CC3)c12` [2-((1S)-1-((6-amino-5-(methylsulfonyl)-4-pyrimidinyl)amino)ethyl)-1-cyclopropyl-N-methyl-1H-benzimidazole-7-carboxamide] was 7.52; that for `CNC(=O)c1cccc2nc([C@H](C)Nc3ncnc(N)c3C(F)(F)F)n(C3CC3)c12` [2-((1S)-1-((6-amino-5-(trifluoromethyl)-4-pyrimidinyl)amino)ethyl)-1-cyclopropyl-N-methyl-1H-benzimidazole-7-carboxamide] was 7.43.
As for `C[C@H](Nc1ncnc(N)c1C#N)c1nc2cccc(C#N)c2n1-c1cncc(F)c1` [2-((1S)-1-((6-amino-5-cyano-4-pyrimidinyl)amino)ethyl)-1-(5-fluoro-3-pyridinyl)-1H-benzimidazole-7-carbonitrile], for the setting “read-out: PI3k δ Ki”, the negative logarithm of the Ki (pKi) is 6.77.
The same measure, in the same setting: in the case of `CNC(=O)c1cccc2nc([C@H](C)Nc3ncnc(N)c3C#N)n(-c3cncc(F)c3)c12` [2-((1S)-1-((6-amino-5-cyano-4-pyrimidinyl)amino)ethyl)-1-(5-fluoro-3-pyridinyl)-N-methyl-1H-benzimidazole-7-carboxamide] it was 7.99; in that of `CNC(=O)c1cccc2nc([C@H](C)Nc3ncnc(N)c3C#N)n(C3CC3)c12` [2-((1S)-1-((6-amino-5-cyano-4-pyrimidinyl)amino)ethyl)-1-cyclopropyl-N-methyl-1H-benzimidazole-7-carboxamide], 8.15; in that of `CNC(=O)c1cccc2nc([C@H](C)Nc3ncnc(N)c3C#N)c(-c3cncc(F)c3)n12` [2-((1S)-1-((6-amino-5-cyano-4-pyrimidinyl)amino)ethyl)-3-(5-fluoro-3-pyridinyl)-N-methylimidazo[1,2-a]pyridine-5-carboxamide], 7.09.
Take `C[C@H](Nc1ncnc(N)c1C#N)c1nc2cccc(C(=O)NC3CC3)c2n1C1CC1` [2-((1S)-1-((6-amino-5-cyano-4-pyrimidinyl)amino)ethyl)-N,1-dicyclopropyl-1H-benzimidazole-7-carboxamide]: the pKi (read-out: PI3k δ Ki) is 7.76.
Still for that read-out and setting: in the case of `C[C@H](Nc1ncnc(N)c1C#N)c1nc2cccc(C(=O)NC3CCCC3)c2n1C1CC1` [2-((1S)-1-((6-amino-5-cyano-4-pyrimidinyl)amino)ethyl)-N-cyclopentyl-1-cyclopropyl-1H-benzimidazole-7-carboxamide] it was 7.74; in that of `C[C@H](Nc1ncnc(N)c1C#N)c1nc2cccc(C(=O)NC3CC3)n2c1-c1ccccc1` [2-((1S)-1-((6-amino-5-cyano-4-pyrimidinyl)amino)ethyl)-N-cyclopropyl-3-phenylimidazo[1,2-a]pyridine-5-carboxamide], 7.76; in that of `CNC(=O)c1cccc2nc([C@H](C)Nc3ncnc(N)c3C#N)c(-c3ccccc3)n12` [2-((1S)-1-((6-amino-5-cyano-4-pyrimidinyl)amino)ethyl)-N-methyl-3-phenylimidazo[1,2-a]pyridine-5-carboxamide], 7.58.
On the same count and under the same terms, in the case of `C[C@H](Nc1ncnc(N)c1C#N)c1nc2cccc(C(=O)NC(C)(C)C)c2n1C1CC1` [2-((1S)-1-((6-amino-5-cyano-4-pyrimidinyl)amino)ethyl)-N-tert-butyl-1-cyclopropyl-1H-benzimidazole-7-carboxamide] it was 7.13.
On the same count and under the same terms, the value for `CC[C@H](Nc1ncnc(N)c1C#N)c1nc2cccc(C(=O)NC)c2n1C1CC1` [2-((1S)-1-((6-amino-5-cyano-4-pyrimidinyl)amino)propyl)-1-cyclopropyl-N-methyl-1H-benzimidazole-7-carboxamide] was 7.41; that for `CNC(=O)c1cccc(-n2c([C@@H](C)Nc3ncnc(N)c3C#N)nc3ccc(F)cc32)c1` [3-(2-((1R)-1-((6-amino-5-cyano-4-pyrimidinyl)amino)ethyl)-6-fluoro-1H-benzimidazol-1-yl)-N-methylbenzamide] was 5.33.
With `CNC(=O)c1cccc(-n2c([C@H](C)Nc3ncnc(N)c3C#N)nc3ccc(F)cc32)c1` [3-(2-((1S)-1-((6-amino-5-cyano-4-pyrimidinyl)amino)ethyl)-6-fluoro-1H-benzimidazol-1-yl)-N-methylbenzamide], the pKi (read-out: PI3k δ Ki) was 7.74.
Still for that read-out and setting: in the case of `CC(Nc1ncnc(N)c1C#N)c1sc2ccccc2c1-c1cc(F)cc(F)c1` (stereo not drawn) [4-amino-6-((1-(3-(3,5-difluorophenyl)-1-benzothiophen-2-yl)ethyl)amino)-5-pyrimidinecarbonitrile] it was 8.48; in that of `CC(Nc1ncnc(N)c1C#N)c1sc2ccccc2c1-c1ccccc1` (stereo not drawn) [4-amino-6-((1-(3-phenyl-1-benzothiophen-2-yl)ethyl)amino)-5-pyrimidinecarbonitrile], 8.58.
On to `C[C@@H](Nc1ncnc(N)c1C#N)c1nc2ccc(F)cc2n1-c1cncc(-c2ccccn2)c1` [4-amino-6-(((1R)-1-(1-(2,3′-bipyridin-5′-yl)-6-fluoro-1H-benzimidazol-2-yl)ethyl)amino)-5-pyrimidinecarbonitrile], for which the negative logarithm of the Ki (pKi) is 5.92.
On to `C[C@@H](Nc1ncnc(N)c1C#N)c1nc2c(F)cc(F)cc2n1-c1cc(F)cc(F)c1` [4-amino-6-(((1R)-1-(1-(3,5-difluorophenyl)-4,6-difluoro-1H-benzimidazol-2-yl)ethyl)amino)-5-pyrimidinecarbonitrile], for which the pKi (read-out: PI3k δ Ki) is 6.60.
As for `C[C@@H](Nc1ncnc(N)c1C#N)c1nc2c(F)cccc2n1-c1cc(F)cc(F)c1` [4-amino-6-(((1R)-1-(1-(3,5-difluorophenyl)-4-fluoro-1H-benzimidazol-2-yl)ethyl)amino)-5-pyrimidinecarbonitrile], for the setting “read-out: PI3k δ Ki”, the pKi was 5.38.
As to `C[C@@H](Nc1ncnc(N)c1C#N)c1nc2ccc(F)cc2n1-c1cccc(C#N)c1` [4-amino-6-(((1R)-1-(1-(3-cyanophenyl)-6-fluoro-1H-benzimidazol-2-yl)ethyl)amino)-5-pyrimidinecarbonitrile], the pKi (read-out: PI3k δ Ki) is 6.39.
Still for that read-out and setting: the value for `C[C@@H](Nc1ncnc(N)c1C#N)c1nc2cccc(S(C)(=O)=O)c2n1C1CC1` [4-amino-6-(((1R)-1-(1-cyclopropyl-7-(methylsulfonyl)-1H-benzimidazol-2-yl)ethyl)amino)-5-pyrimidinecarbonitrile] was 6.00.
Still for that read-out and setting: the value for `C[C@@H](Nc1ncnc(N)c1C#N)c1nc2c(F)cc(F)cc2n1-c1cccnc1` [4-amino-6-(((1R)-1-(4,6-difluoro-1-(3-pyridinyl)-1H-benzimidazol-2-yl)ethyl)amino)-5-pyrimidinecarbonitrile] was 5.89; that for `C[C@@H](Nc1ncnc(N)c1C#N)c1nc2cc(F)ccc2n1-c1ccccn1` [4-amino-6-(((1R)-1-(5-fluoro-1-(2-pyridinyl)-1H-benzimidazol-2-yl)ethyl)amino)-5-pyrimidinecarbonitrile] was 8.15.
The same measure, in the same setting: the value for `C[C@@H](Nc1ncnc(N)c1C#N)c1nc2cc(F)ccc2n1-c1cncc(F)c1` [4-amino-6-(((1R)-1-(5-fluoro-1-(5-fluoro-3-pyridinyl)-1H-benzimidazol-2-yl)ethyl)amino)-5-pyrimidinecarbonitrile] was 5.55; that for `C[C@@H](Nc1ncnc(N)c1C#N)c1nc2ccc(F)cc2n1-c1cccc(-c2ccccn2)c1` [4-amino-6-(((1R)-1-(6-fluoro-1-(3-(2-pyridinyl)phenyl)-1H-benzimidazol-2-yl)ethyl)amino)-5-pyrimidinecarbonitrile] was 6.88.
As to `C[C@@H](Nc1ncnc(N)c1C#N)c1nc2ccc(F)cc2n1-c1cccc(F)n1` [4-amino-6-(((1R)-1-(6-fluoro-1-(6-fluoro-2-pyridinyl)-1H-benzimidazol-2-yl)ethyl)amino)-5-pyrimidinecarbonitrile], the negative logarithm of the Ki (pKi) (read-out: PI3k δ Ki) was 6.12.
As to `C[C@H](Nc1ncnc(N)c1C#N)c1nc2ccc(F)cc2n1-c1cncc(-c2ccccn2)c1` [4-amino-6-(((1S)-1-(1-(2,3′-bipyridin-5′-yl)-6-fluoro-1H-benzimidazol-2-yl)ethyl)amino)-5-pyrimidinecarbonitrile], the negative logarithm of the Ki (pKi) is 6.61.

Values taken from US8575183B2, “Heterocyclic compounds and their uses” (priority 2010, dated 2013).
